Tested on: patients after acute myocardial infarction
Test: Life quality, Seattle Angina Questionnaire (SAQ), same clinical trial
Assay type: in vivo, human
Conditions: FAS
From the text: 3508 patients who were in accordance with the diagnostic standards of AMI for 28 days to 2 years and differentiated as Qi deficiency and blood stagnation syndrome by TCM were studied. 0.5 g Chinese medicine composition prepared by the method of EXAMPLE 1 (Coded as QSYQ) was administrated half an hour after meal, 3 times per day.
There were 19 questions in the Seattle angina questionnaire (SAQ), including 5 parts: physical limitation (PL), anginal stability (AS), anginal frequency (AF), treatment satisfaction (TS) and disease perception (DP). After being given necessary explanation by doctors, the questions were answered independently by patients.
They included the overall survival time, angina pectoris score, TCM symptom score and life quality score, where angina pectoris score, TCM symptom score and life quality score were evaluated at randomization, in 1st, 3rd, 6th, 9th, 12th month after treatment and 18th month after follow-up.
All evaluation results of SAQ were described during the period of observation, and Wilcoxon rank sum test was used for inter-group comparison.
The evaluation results in the SAQ were depicted in different observations, and inter-group comparison was tested by Wilcoxon Rank-sum test.

CC(=O)Oc1ccccc1C(=O)O [Control group, aspirine]
SAQ Question 1-2 Moderately limited, number of patients (1 month after treatment): 14 | SAQ Question 1-2 Moderately limited, percent of patients (1 month after treatment): (0.80%) | SAQ Question 1-2 Not limited, number of patients (1 month after treatment): 1575 | SAQ Question 1-2 Not limited, percent of patients (1 month after treatment): (90.36%) | SAQ Question 1-2 Other reasons, number of patients (1 month after treatment): 6 | SAQ Question 1-2 Other reasons, percent of patients (1 month after treatment): (0.34%) | SAQ Question 1-2 Severely limited, number of patients (1 month after treatment): 0 | SAQ Question 1-2 Severely limited, percent of patients (1 month after treatment): (0.00%) | SAQ Question 1-2 Slightly limited, percent of patients (1 month after treatment): (6.66%) | SAQ Question 1-6: Mildly limited, patients (%) (1 month after treatment): (18.54%) | SAQ Question 1-6: Moderately limited, patients (%) (1 month after treatment): (14.85%) | SAQ Question 1-6: Not limited, patients (%) (1 month after treatment): (29.59%) | SAQ Question 1-6: Other reasons, patients (%) (1 month after treatment): (0.81%) | SAQ Question 1-6: Severely limited, patients (%) (1 month after treatment): (5.18%) | SAQ Question 1-6: Slightly limited, patients (%) (1 month after treatment): (31.03%) | SAQ Question 1-7: Mildly limited, patients (%) (1 month after treatment): (23.73%) | SAQ Question 1-7: Moderately limited, patients (%) (1 month after treatment): (17.45%) | SAQ Question 1-7: Not limited, patients (%) (1 month after treatment): (12.86%) | SAQ Question 1-7: Other reasons, patients (%) (1 month after treatment): (2.85%) | SAQ Question 1-7: Severely limited, patients (%) (1 month after treatment): (17.68%) | SAQ Question 1-7: Slightly limited, patients (%) (1 month after treatment): (25.42%) | SAQ Question 1-8: Mildly limited, patients (%) (1 month after treatment): (24.13%) | SAQ Question 1-8: Moderately limited, patients (%) (1 month after treatment): (20.52%) | SAQ Question 1-8: Not limited, patients (%) (1 month after treatment): (9.01%) | SAQ Question 1-8: Other reasons, patients (%) (1 month after treatment): (2.79%) | SAQ Question 1-8: Severely limited, patients (%) (1 month after treatment): (22.27%) | SAQ Question 1-8: Slightly limited, patients (%) (1 month after treatment): (21.28%) | 8th question: Dissatisfied, patients (%) (3 months after treatment): (0.17%) | 8th question: Highly satisfied, patients (%) (3 months after treatment): (19.09%) | 8th question: Mostly dissatisfied, patients (%) (3 months after treatment): (3.10%) | 8th question: Mostly satisfied, patients (%) (3 months after treatment): (52.81%) | 8th question: Partly satisfied, patients (%) (3 months after treatment): (24.83%) | 9th question: Few, patients (%) (3 months after treatment): (31.88%) | 9th question: Mild, patients (%) (3 months after treatment): (33.54%) | 9th question: Moderate, patients (%) (3 months after treatment): (15.60%) | 9th question: Severe, patients (%) (3 months after treatment): (1.49%) | 9th question: Uneffective, patients (%) (3 months after treatment): (17.49%) | 10th question: Dissatisfied, patients (%) (3 months after treatment): (21.33%) | 10th question: Highly satisfied, patients (%) (3 months after treatment): (4.70%) | 10th question: Mostly dissatisfied, patients (%) (3 months after treatment): (22.19%) | 10th question: Mostly satisfied, patients (%) (3 months after treatment): (24.20%) | 10th question: Partly satisfied, patients (%) (3 months after treatment): (27.58%) | 11th question: Continuously worried, patients (%) (3 months after treatment): (5.39%) | 11th question: No worried, patients (%) (3 months after treatment): (4.87%) | 11th question: Occasionally worried, patients (%) (3 months after treatment): (40.94%) | 11th question: Often worried, patients (%) (3 months after treatment): (18.29%) | 11th question: Seldom worried, patients (%) (3 months after treatment): (30.50%) | SAQ 4th question, 1-2 times per week: % of patients (3 months after treatment): (16.69%) | SAQ 4th question, 1-2 times per week: number of patients (3 months after treatment): 291 | SAQ 4th question, 1-3 times per day: % of patients (3 months after treatment): (5.56%) | SAQ 4th question, 1-3 times per day: number of patients (3 months after treatment): 97 | SAQ 4th question, <1 time per week: % of patients (3 months after treatment): (11.47%) | SAQ 4th question, <1 time per week: number of patients (3 months after treatment): 200 | SAQ 4th question, Not used: % of patients (3 months after treatment): (55.50%) | SAQ 4th question, Not used: number of patients (3 months after treatment): 968 | SAQ 4th question, ≧3 times per week: % of patients (3 months after treatment): (10.72%) | SAQ 4th question, ≧3 times per week: number of patients (3 months after treatment): 187 | SAQ 4th question, ≧4 times per day: % of patients (3 months after treatment): (0.06%) | SAQ 4th question, ≧4 times per day: number of patients (3 months after treatment): 1 | SAQ 5th question, Few: % of patients (3 months after treatment): (24.60%) | SAQ 5th question, Few: number of patients (3 months after treatment): 429 | SAQ 5th question, Mild: % of patients (3 months after treatment): (26.26%) | SAQ 5th question, Mild: number of patients (3 months after treatment): 458 | SAQ 5th question, Moderate: % of patients (3 months after treatment): (15.65%) | SAQ 5th question, Moderate: number of patients (3 months after treatment): 273 | SAQ 5th question, None: % of patients (3 months after treatment): (27.41%) | SAQ 5th question, None: number of patients (3 months after treatment): 478 | SAQ 5th question, Not medicated by doctors: % of patients (3 months after treatment): (4.36%) | SAQ 5th question, Not medicated by doctors: number of patients (3 months after treatment): 76 | SAQ 5th question, Severe: % of patients (3 months after treatment): (1.72%) | SAQ 5th question, Severe: number of patients (3 months after treatment): 30 | SAQ 6th question, Dissatisfied: % of patients (3 months after treatment): (0.23%) | SAQ 6th question, Dissatisfied: number of patients (3 months after treatment): 4 | SAQ 6th question, Highly satisfied: % of patients (3 months after treatment): (19.61%) | SAQ 6th question, Highly satisfied: number of patients (3 months after treatment): 342 | SAQ 6th question, Mostly dissatisfied: % of patients (3 months after treatment): (2.64%) | SAQ 6th question, Mostly dissatisfied: number of patients (3 months after treatment): 46
